Our source for the IC50 values is patent publication US8163766B2, “Beta-secretase modulators and methods of use” (Amgen Inc., priority 2005, dated 2012).

The test system of this assay is Aβ 40 in conditioned media of cells stably expressing Amyloid Precursor Protein (APP). Description: BACE Cell-Based Assay (Aβ40 in conditioned medium, sandwich ELISA). The note with it: 24 hours of incubation with the test compounds, Aβ 40 by sandwich ELISA, read-out: IC50 values in the cell-based assay (inhibition of Aβ 40). As for the experimental part:
The cell-based assay measures inhibition or reduction of Aβ40 in conditioned medium of test compound treated cells, which express amyloid precursor protein.
Cells stably expressing Amyloid Precursor Protein (APP) were plated at a density of 40K cells/well in 96 well plates (Costar). The cells were cultivated for 24 h at 37° C. and 5% CO2 in DMEM supplemented with 10% FBS. The test compounds were then added to cells in 10-point dose response concentrations with the starting concentration being either 100 μM or 10 μM. The compounds were diluted from stock solutions in DMSO and the final DMSO concentration of the test compounds on cells was 0.1%. After 24 hours of incubation with the test compounds the supernatant conditioned media was collected and the Aβ 40 levels were determined using a sandwich ELISA. The IC50 of the compound was calculated from the percent of control or percent inhibition of Aβ 40 as a function of the concentration of the test compound.
The sandwich ELISA to detect Aβ 40 was performed in 96 well microtiter plates, which were pre-treated with goat anti-rabbit IgG (Pierce). The capture and detecting antibody pair that were used to detect Aβ 40 from cell supernatants were affinity purified pAb40 (Biosource) and biotinylated 6E10 (Signet Labs Inc.), respectively. The optimal concentration for the pAb40 antibody was 3 μg/ml in Superblock/TBS (Pierce) that was supplemented with 0.05% Tween 20 (Sigma). Optimal concentration for the detection antibody 6E10-biotinylated was […] in Superblock/TBS (Pierce) that had been supplemented with 2% normal goat serum and 2% normal mouse serum.
Cellular supernatants were incubated with the capture antibody for 3 h at 4° C., followed by 3 wash steps in TBS-tween (0.05%). The detecting antibody incubation was for 2 h at 4° C., again followed by the wash steps as described previously. The final readout of the ELISA is Time-Resolved Fluorescence (counts per minute) using Delfia reagents Streptavidin-Europium and Enhancement solutions (Perkin Elmer) and the Victor 2 multilabel counter (Perkin Elmer).
As to `CCc1ccc2c(c1)[C@@H](NC[C@@H](O)[C@H](Cc1ccccc1)NC(=O)[C@H]1CN(C)c3ccccc3O1)CC1(CCCC1)O2` [Example 47, (R)—N-((2S,3R)-4-((S)-6-ethyl-2,2-spirocyclopentylchroman-4-ylamino)-3-hydroxy-1-phenylbutan-2-yl)-4-methyl-3,4-dihydro-2H-benzo[b][1,4]oxazine-2-carboxamide], the half-maximal inhibitory concentration (IC50) was at most 5 µM.

For the compound `CCc1ccc2c(c1)[C@@H](NC[C@@H](O)[C@H](Cc1ccccc1)NC(=O)C1CN(C)c3ccccc3O1)CC1(CCCC1)O2` (stereo partly drawn) [Example 48, (S)—N-((2S,3R)-4-((S)-6-ethyl-2,2-spirocyclopentylchroman-4-ylamino)-3-hydroxy-1-phenylbutan-2-yl)-4-methyl-3,4-dihydro-2H-benzo[b][1,4]oxazine-2-carboxamide], the concentration for half-maximal inhibition (IC50) was at most 5 µM. Then `CCc1ccc2c(c1)[C@@H](NC[C@@H](O)[C@H](Cc1ccccc1)NC(=O)C1Cc3ccccc3N(C)C1)CC1(CCCC1)O2` (stereo partly drawn) [Example 49, N-((2S,3R)-4-((S)-6-ethyl-2,2-spirocyclopentylchroman-4-ylamino)-3-hydroxy-1-phenylbutan-2-yl)-1-methyl-1,2,3,4-tetrahydroquinoline-3-carboxamide], with at most 5 µM; and `CCc1ccc2c(c1)[C@@H](NC[C@@H](O)[C@H](Cc1ccccc1)NC(=O)[C@H]1CN(C(C)=O)c3ccccc3O1)CC1(CCCC1)O2` [Example 50, (R)-4-acetyl-N-((2S,3R)-4-((S)-6-ethyl-2,2-spirocyclopentylchroman-4-ylamino)-3-hydroxy-1-phenylbutan-2-yl)-3,4-dihydro-2H-benzo[b][1,4]oxazine-2-carboxamide], with at most 5 µM. As for `CCc1ccc2c(c1)[C@@H](NC[C@@H](O)[C@H](Cc1ccccc1)NC(=O)[C@@H]1CN(C(C)=O)c3ccccc3O1)CC1(CCCC1)O2` [Example 51, (S)-4-acetyl-N-((2S,3R)-4-((S)-6-ethyl-2,2-spirocyclopentylchroman-4-ylamino)-3-hydroxy-1-phenylbutan-2-yl)-3,4-dihydro-2H-benzo[b][1,4]oxazine-2-carboxamide], the IC50 is at most 5 µM. Then `CCc1ccc2c(c1)[C@@H](NC[C@@H](O)[C@H](Cc1ccccc1)NC(=O)[C@H]1CN(C(=O)OC(C)(C)C)c3ccccc3O1)CC1(CCCC1)O2` [Example 52, (R)-tert-Butyl 2-(((2S,3R)-4-((S)-6-ethyl-2,2-spirocyclopentylchroman-4-ylamino)-3-hydroxy-1-phenylbutan-2-yl)carbamoyl)-2,3-dihydrobenzo[b][1,4]oxazine-4-carboxylate], with at most 5 µM. Take `CCc1ccc2c(c1)[C@@H](NC[C@@H](O)[C@H](Cc1ccccc1)NC(=O)c1cc(N3CCCC3=O)c(=O)n(C3CCCC3)c1)CC1(CCCC1)O2` [Example 105]: the IC50 is at most 5 µM. For `CCc1ccc2c(c1)[C@@H](NC[C@@H](O)[C@H](Cc1ccccc1)NC(=O)c1cc(-c3ccccc3F)c(=O)n3c1CCC3)CC1(CCCC1)O2` [Example 107, N-((2S,3R)-4-((8)-6-Ethyl-2,2-spirocyclopentylchroman-4-ylamino)3-hydroxy-1-phenylbutan-2-yl)-6-(2-fluorophenyl)-5-oxo-1,2,3,5-tetrahydroindolizine-8-carboxamide], the IC50 is at most 5 µM. As to `CCc1ccc2c(c1)[C@@H](NC[C@@H](O)[C@H](Cc1ccccc1)NC(=O)c1cc(-c3cccc(F)c3)c(=O)n3c1CCC3)CC1(CCCC1)O2` [Example 108, N-((2S,3R)-4-((8)-6-Ethyl-2,2-spirocyclopentylchroman-4-ylamino)3-hydroxy-1-phenylbutan-2-yl)-6-(3-fluorophenyl)-5-oxo-1,2,3,5-tetrahydroindolizine-8-carboxamide], the IC50 is at most 5 µM.

With `O=C(N[C@@H](Cc1ccccc1)[C@H](O)CN[C@H]1CC2(CCCC2)Oc2ccc(F)cc21)c1cc(N2CCCC2=O)c(=O)n(C2CCCC2)c1` [Example 110], the IC50 is at most 5 µM. The value for `O=C(N[C@@H](Cc1ccccc1)[C@H](O)CN[C@H]1CC2(CCCC2)Oc2c(F)cc(F)cc21)c1cc(N2CCCC2=O)c(=O)n(C2CCCC2)c1` [Example 111] was at most 5 µM; that for `CCc1ccc2c(c1)[C@@H](NC[C@@H](O)[C@H](Cc1ccccc1)NC(=O)c1cc(N3CCCC3=O)c(=O)n(C3CCCC3)c1)CC1(CCC1)O2` [Example 116] was at most 5 µM.

With `CCc1ccc2c(c1)[C@@H](NC[C@@H](O)[C@H](Cc1ccccc1)NC(=O)c1ccc(=O)n(C3CCCC3)c1)CC1(CCC1)O2` [Example 117], the IC50 is at most 5 µM. The value for `CCc1ccc2c(c1)[C@@H](NC[C@@H](O)[C@H](Cc1ccccc1)NC(=O)c1ccc(=O)n(CC(C)C)c1)CC1(CCC1)O2` [Example 118] was at most 5 µM; that for `CCc1ccc2c(c1)[C@@H](NC[C@@H](O)[C@H](Cc1ccccc1)NC(=O)c1ccc(=O)n(CC(F)(F)F)c1)CC1(CCC1)O2` [Example 119] was at most 5 µM; that for `CCc1ccc2c(c1)[C@@H](NC[C@@H](O)[C@H](Cc1ccccc1)NC(=O)c1ccc(=O)n(-c3ccccc3)c1)CC1(CCC1)O2` [Example 120] was at most 5 µM. Then `O=C(N[C@@H](Cc1ccccc1)[C@H](O)CN[C@H]1CC2(CCCC2)Oc2ccc(Br)cc21)c1cc(N2CCCC2=O)c(=O)n(C2CCCC2)c1` [Example 121], with at most 5 µM; and `O=C(N[C@@H](Cc1ccccc1)[C@H](O)CN[C@H]1CC2(CCCC2)Oc2ccc(Br)cc21)c1ccc(=O)n(C2CCCC2)c1` [Example 122], with at most 5 µM. Then `CC(C)Cn1cc(C(=O)N[C@@H](Cc2ccccc2)[C@H](O)CN[C@H]2CC3(CCCC3)Oc3ccc(Br)cc32)ccc1=O` [Example 123], with at most 5 µM; and `CC(C)(C)Cc1ccc2c(c1)[C@@H](NC[C@@H](O)[C@H](Cc1ccccc1)NC(=O)c1cc(N3CCCC3=O)c(=O)n(C3CCCC3)c1)CC1(CCCC1)O2` [Example 124], with at most 5 µM; and `CC(C)(C)Cc1ccc2c(c1)[C@@H](NC[C@@H](O)[C@H](Cc1ccccc1)NC(=O)c1ccc(=O)n(C3CCCC3)c1)CC1(CCCC1)O2` [Example 125], with at most 5 µM.

Consider `CCc1ccc2c(c1)[C@@H](NC[C@@H](O)[C@H](Cc1ccccc1)NC(=O)c1cc(-c3ccccc3F)c(=O)n3c1CCC3)CC1(CCC1)O2` [Example 126, N-((2S,3R)-4-((S)-6-Ethyl-2,2-spirocyclobutylchroman-4-ylamino)3-hydroxy-1-phenylbutan-2-yl)-6-(2-fluorophenyl)-5-oxo-1,2,3,5-tetrahydroindolizine-8-carboxamide], for which the IC50 was at most 5 µM. Then `CCc1ccc2c(c1)[C@@H](NC[C@@H](O)[C@H](Cc1ccccc1)NC(=O)c1cc(N3CCCC3=O)c(=O)n(C3CCCC3)c1)CC1(CCCCC1)O2` [Example 128, 1-cyclopentyl-N-((2S,3R)-4-((8)-6-ethyl-2,2-spirocyclohexyl-chroman-4-ylamino)-3-hydroxy-1-phenylbutan-2-yl)-6-oxo-5-(2-oxopyrrolidin-1-yl)-1,6-dihydropyridine-3-carboxamide], with at most 5 µM. On to `CCc1ccc2c(c1)[C@@H](NC[C@@H](O)[C@H](Cc1ccccc1)NC(=O)c1ccc(=O)n(C3CCCCC3)c1)CC1(CCCCC1)O2` [Example 129, 1-cyclohexyl-N-((2S,3R)-4-((S)-6-ethyl-2,2-spirocyclohexyl-chroman-4-ylamino)-3-hydroxy-1-phenylbutan-2-yl)-6-oxo-1,6-dihydropyridine-3-carboxamide], for which the IC50 is at most 5 µM.

Regarding `CCc1ccc2c(c1)[C@@H](NC[C@@H](O)[C@H](Cc1ccccc1)NC(=O)c1cc(N3CCCC3=O)c(=O)n(C3CCCC3)c1)CC1(CCCCCC1)O2` [Example 130, 1-cyclopentyl-N-((2S,3R)-4-((S)-6-ethyl-2,2-spirocycloheptyl-chroman-4-ylamino)-3-hydroxy-1-phenylbutan-2-yl)-6-oxo-5-(2-oxopyrrolidin-1-yl)-1,6-dihydropyridine-3-carboxamide], the IC50 is at most 5 µM.

In the case of `Cc1ccc2c(c1)[C@@H](NC[C@@H](O)[C@H](Cc1ccccc1)NC(=O)c1cc(N3CCCC3=O)c(=O)n(C3CCCC3)c1)CC1(CCCC1)O2` [Example 131, 1-cyclopentyl-N-((2S,3R)-4-((S)-2,2-spirocyclopentyl-6-methylchroman-4-ylamino)-3-hydroxy-1-phenylbutan-2-yl)-6-oxo-5-(2-oxopyrrolidin-1-yl)-1,6-dihydropyridine-3-carboxamide], the IC50 was at most 5 µM. Consider `Cc1ccc2c(c1)[C@@H](NC[C@@H](O)[C@H](Cc1ccccc1)NC(=O)c1ccc(=O)n(C3CCCC3)c1)CC1(CCCC1)O2` [Example 132, 1-cyclopentyl-N-((2S,3R)-4-((S)-2,2-spirocyclopentyl-6-methylchroman-4-ylamino)-3-hydroxy-1-phenylbutan-2-yl)-6-oxo-1,6-dihydropyridine-3-carboxamide], for which the IC50 was at most 5 µM.
